Measured values published in PMC5850045 (ERJ Open Research, 2018).
Like-named read-outs stand apart in the source and are kept apart here.

Tests used:
[1] = target: T1, α1B-adrenergic receptor (Homo sapiens, UniProt P35368); assay: Secondary radioligand binding assay
T1 sequence (P35368 1-520): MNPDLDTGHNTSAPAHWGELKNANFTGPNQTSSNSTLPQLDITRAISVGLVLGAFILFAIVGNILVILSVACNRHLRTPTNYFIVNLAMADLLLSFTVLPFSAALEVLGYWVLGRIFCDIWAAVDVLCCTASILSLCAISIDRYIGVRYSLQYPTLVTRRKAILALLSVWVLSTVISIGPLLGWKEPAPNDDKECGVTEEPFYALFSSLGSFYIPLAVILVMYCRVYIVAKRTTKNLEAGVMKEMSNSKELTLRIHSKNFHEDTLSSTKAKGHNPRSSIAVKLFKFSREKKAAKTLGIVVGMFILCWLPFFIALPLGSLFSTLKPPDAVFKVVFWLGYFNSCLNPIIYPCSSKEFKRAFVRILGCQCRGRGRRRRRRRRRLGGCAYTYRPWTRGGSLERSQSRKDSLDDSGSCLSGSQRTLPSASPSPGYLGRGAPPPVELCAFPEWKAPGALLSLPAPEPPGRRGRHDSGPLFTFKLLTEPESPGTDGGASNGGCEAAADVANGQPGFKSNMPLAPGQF

[2] = target: T2, α1D-adrenergic receptor (Homo sapiens, UniProt P25100); assay: Secondary radioligand binding assay
T2 sequence (P25100 1-572): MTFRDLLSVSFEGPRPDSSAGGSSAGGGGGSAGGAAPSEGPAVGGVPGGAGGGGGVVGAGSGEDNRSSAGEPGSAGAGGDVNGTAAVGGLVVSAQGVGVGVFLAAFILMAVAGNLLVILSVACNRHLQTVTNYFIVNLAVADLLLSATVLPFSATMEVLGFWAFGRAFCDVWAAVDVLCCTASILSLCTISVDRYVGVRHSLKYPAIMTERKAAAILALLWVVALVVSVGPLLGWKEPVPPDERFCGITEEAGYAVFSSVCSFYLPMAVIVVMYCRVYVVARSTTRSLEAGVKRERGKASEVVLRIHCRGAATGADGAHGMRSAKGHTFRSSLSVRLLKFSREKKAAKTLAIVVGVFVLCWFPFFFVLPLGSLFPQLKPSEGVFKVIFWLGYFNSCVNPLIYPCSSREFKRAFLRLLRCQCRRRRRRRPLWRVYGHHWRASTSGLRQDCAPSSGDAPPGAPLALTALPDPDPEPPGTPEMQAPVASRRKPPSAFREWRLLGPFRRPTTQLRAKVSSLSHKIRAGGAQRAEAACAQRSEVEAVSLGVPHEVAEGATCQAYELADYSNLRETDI

[3] = target: histamine H1 receptor (Homo sapiens, UniProt P35367); assay: Primary radioligand binding screen; conditions: 10 µM, n = 4
[4] = target: T3, 5-HT2C receptor (Homo sapiens, UniProt P28335); assay: Secondary radioligand binding assay
T3 sequence (P28335 33-458): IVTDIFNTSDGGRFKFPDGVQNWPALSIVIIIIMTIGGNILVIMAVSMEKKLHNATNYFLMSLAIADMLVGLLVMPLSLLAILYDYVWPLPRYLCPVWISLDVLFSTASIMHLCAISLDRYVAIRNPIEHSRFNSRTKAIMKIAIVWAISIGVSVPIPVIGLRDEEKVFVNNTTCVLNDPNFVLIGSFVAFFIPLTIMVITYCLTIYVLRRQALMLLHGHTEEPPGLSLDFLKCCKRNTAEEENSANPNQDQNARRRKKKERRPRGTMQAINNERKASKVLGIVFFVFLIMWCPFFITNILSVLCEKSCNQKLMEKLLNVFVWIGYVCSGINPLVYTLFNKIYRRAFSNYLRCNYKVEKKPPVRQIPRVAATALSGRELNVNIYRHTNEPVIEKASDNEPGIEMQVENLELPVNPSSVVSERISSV

[5] = target: T4, α1A-adrenergic receptor (Homo sapiens, UniProt P35348); assay: Secondary radioligand binding assay
T4 sequence (P35348 1-466): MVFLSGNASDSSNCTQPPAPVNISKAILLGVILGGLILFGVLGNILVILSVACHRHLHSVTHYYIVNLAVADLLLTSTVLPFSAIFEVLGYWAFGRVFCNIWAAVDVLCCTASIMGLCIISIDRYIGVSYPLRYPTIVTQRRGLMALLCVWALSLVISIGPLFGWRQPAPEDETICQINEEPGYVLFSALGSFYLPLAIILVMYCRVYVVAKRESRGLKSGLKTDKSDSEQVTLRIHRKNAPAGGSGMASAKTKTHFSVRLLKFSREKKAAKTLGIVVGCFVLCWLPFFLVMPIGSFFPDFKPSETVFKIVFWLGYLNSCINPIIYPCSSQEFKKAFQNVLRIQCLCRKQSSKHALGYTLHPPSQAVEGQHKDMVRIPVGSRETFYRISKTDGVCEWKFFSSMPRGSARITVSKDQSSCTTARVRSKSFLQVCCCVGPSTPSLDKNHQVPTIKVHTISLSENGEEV

[6] = target: T5, β3-adrenergic receptor (Homo sapiens, UniProt P13945); assay: Secondary radioligand binding assay
[7] = target: T6, δ-opioid receptor (Homo sapiens, UniProt P41143); assay: Secondary radioligand binding assay
[8] = target: T7, serotonin transporter (Homo sapiens, UniProt P31645); assay: Secondary radioligand binding assay; conditions: low-affinity binding
[9] = test system: rat colon; assay: Ex vivo rat colon force contraction experiment; conditions: for contractile response in the colon: colon pre-treated with β3 receptor selective antagonist SR59230A; for effects on colonic contractions: ex vivo rat colon preparation
[10] = target: T3, 5-HT2C receptor; assay: Primary radioligand binding screen; conditions: 10 µM, n = 4
[11] = target: T4, α1A-adrenergic receptor; assay: Primary radioligand binding screen; conditions: 10 µM, n = 4
[12] = target: T5, β3-adrenergic receptor; assay: Primary radioligand binding screen; conditions: 10 µM, n = 4
[13] = target: dopamine transporter (Homo sapiens, UniProt Q01959); assay: Primary radioligand binding screen; conditions: 10 µM, n = 4
[14] = target: T6, δ-opioid receptor; assay: Primary radioligand binding screen; conditions: 10 µM, n = 4
[15] = target: T7, serotonin transporter; assay: Primary radioligand binding screen; conditions: 10 µM, n = 4
[16] = target: muscarinic M3 receptor (Homo sapiens, UniProt P20309); assay type: binding
muscarinic M3 receptor, sequence (P20309 whole entry): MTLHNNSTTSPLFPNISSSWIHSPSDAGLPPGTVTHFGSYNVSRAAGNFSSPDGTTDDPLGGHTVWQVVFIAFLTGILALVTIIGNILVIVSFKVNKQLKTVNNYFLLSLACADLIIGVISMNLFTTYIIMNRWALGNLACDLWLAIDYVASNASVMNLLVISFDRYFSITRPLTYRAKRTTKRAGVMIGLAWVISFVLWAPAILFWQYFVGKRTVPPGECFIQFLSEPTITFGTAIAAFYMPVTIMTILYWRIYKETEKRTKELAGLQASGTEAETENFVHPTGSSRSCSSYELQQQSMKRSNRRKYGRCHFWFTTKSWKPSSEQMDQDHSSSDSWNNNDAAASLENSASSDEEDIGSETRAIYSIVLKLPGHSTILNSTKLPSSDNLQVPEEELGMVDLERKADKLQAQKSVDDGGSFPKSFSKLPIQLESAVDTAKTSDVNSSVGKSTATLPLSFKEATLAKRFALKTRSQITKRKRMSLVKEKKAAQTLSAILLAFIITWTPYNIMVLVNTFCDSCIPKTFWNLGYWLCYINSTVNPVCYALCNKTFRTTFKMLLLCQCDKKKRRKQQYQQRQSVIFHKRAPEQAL

T7 sequence (P31645 whole entry): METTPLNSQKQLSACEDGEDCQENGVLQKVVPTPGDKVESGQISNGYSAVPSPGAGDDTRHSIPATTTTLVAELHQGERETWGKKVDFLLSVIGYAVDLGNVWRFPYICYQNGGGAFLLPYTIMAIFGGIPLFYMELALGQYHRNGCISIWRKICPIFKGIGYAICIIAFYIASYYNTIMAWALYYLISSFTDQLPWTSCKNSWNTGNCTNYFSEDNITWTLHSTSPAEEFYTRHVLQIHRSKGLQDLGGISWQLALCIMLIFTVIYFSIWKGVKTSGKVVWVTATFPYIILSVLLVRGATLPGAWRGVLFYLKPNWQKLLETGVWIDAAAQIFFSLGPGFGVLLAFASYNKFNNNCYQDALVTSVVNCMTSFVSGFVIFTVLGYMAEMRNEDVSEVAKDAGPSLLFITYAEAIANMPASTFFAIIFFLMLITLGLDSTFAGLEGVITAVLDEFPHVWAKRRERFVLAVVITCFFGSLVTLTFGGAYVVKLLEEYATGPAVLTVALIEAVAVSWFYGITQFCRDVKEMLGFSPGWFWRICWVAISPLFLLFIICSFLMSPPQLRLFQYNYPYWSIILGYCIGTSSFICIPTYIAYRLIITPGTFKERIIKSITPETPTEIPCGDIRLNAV
T5 sequence (P13945 whole entry, species assumed): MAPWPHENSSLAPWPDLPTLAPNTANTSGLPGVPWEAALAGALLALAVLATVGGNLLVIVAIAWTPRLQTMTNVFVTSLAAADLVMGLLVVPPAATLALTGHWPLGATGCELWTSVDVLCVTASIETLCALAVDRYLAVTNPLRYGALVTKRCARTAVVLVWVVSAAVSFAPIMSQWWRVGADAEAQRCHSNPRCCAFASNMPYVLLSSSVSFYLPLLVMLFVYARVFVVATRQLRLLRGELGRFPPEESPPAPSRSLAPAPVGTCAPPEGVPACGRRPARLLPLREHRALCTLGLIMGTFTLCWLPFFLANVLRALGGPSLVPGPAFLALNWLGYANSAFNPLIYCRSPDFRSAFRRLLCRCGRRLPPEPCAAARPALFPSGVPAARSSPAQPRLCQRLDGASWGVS
T6 sequence (P41143 whole entry): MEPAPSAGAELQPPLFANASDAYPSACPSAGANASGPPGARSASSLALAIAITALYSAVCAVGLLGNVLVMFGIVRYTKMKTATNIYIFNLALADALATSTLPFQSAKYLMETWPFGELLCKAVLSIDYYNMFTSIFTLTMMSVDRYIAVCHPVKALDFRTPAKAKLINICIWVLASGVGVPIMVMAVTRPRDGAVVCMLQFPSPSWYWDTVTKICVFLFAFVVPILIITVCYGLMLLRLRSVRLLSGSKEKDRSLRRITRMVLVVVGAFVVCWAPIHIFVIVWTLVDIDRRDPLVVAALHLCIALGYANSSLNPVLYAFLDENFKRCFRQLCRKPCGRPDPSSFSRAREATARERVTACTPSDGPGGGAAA
histamine H1 receptor, sequence (P35367 whole entry, species assumed): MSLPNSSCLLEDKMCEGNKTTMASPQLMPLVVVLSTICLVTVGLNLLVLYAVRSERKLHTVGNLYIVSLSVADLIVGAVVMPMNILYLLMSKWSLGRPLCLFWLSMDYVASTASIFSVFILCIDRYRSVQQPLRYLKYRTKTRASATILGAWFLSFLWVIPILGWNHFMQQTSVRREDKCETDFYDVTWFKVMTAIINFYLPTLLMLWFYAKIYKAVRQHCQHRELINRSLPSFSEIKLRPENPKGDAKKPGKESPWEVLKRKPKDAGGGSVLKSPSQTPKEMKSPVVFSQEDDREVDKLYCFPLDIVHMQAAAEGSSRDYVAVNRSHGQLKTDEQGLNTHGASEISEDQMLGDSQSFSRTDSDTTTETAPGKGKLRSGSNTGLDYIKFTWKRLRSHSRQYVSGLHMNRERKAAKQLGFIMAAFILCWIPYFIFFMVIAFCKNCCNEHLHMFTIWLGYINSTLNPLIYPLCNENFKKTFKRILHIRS
dopamine transporter, sequence (Q01959 whole entry): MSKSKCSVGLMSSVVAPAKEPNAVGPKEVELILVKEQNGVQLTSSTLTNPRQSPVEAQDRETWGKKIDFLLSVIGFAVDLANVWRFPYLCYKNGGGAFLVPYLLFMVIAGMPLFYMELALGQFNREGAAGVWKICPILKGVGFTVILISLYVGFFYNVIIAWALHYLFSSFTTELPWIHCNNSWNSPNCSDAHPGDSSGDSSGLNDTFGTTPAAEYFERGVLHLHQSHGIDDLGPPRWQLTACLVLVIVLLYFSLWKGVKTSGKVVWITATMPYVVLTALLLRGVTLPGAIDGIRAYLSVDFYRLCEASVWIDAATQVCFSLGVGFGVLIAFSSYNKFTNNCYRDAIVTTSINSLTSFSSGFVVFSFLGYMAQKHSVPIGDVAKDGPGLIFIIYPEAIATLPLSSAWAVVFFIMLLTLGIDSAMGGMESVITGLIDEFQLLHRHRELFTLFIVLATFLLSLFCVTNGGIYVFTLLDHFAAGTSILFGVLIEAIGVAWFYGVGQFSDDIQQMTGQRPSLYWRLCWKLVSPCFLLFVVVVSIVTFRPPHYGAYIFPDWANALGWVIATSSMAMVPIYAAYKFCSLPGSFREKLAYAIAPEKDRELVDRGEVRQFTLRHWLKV

Compound | Ki [2] [µM] | % displacement [3] [%] | contractile response in the colon [9] | effects on colonic contractions [9] | % displacement [10] [%] | % displacement [11] [%] | % displacement [15] [%] | Ki ([5]; low-affinity binding) [µM] | Ki [8] [µM] | other results
Cc1ccc(NC(=O)C2(c3ccc4c(c3)OC(F)(F)O4)CC2)nc1-c1cccc(C(=O)O)c1 [lumacaftor] | 4.84 | 71.2 | – | – | – | – | – | – | – | Ki [1]: > 10 µM
CC(C)(C)c1cc(C(C)(C)C)c(NC(=O)c2c[nH]c3ccccc3c2=O)cc1O [ivacaftor] | – | – | significant contractile response | no significant effects | 84.8 | 58.3 | 61.1 | – | – | Ki [4]: 0.866 µM; Ki [5]: > 10 µM; Ki [6]: 1.93 µM; Ki [7]: 2.59 µM; Ki ([8]; Ki): > 10 µM; % displacement [12]: 75.9%; % displacement [13]: 55.2%; % displacement [14]: 50.8%
CC(C)(C)c1cc(C(C)(C)C(=O)O)c(O)cc1NC(=O)c1c[nH]c2ccccc2c1=O [iva-M6, ivacaftorcarboxylate] | – | – | significant contractile response | no significant effects | – | 92.3 | 50.9 | > 10 | > 10 | –
CC(C)(C)c1cc(C(C)(C)CO)c(O)cc1NC(=O)c1c[nH]c2ccccc2c1=O [iva-M1, hydroxymethylivacaftor] | – | – | – | – | 78.2 | 79.9 | 56.7 | > 10 | > 10 | Ki [16]: 1.83 µM; pKi [16]: 5.70±0.10
CC(C)(CO)c1cc2cc(NC(=O)C3(c4ccc5c(c4)OC(F)(F)O5)CC3)c(F)cc2n1C[C@@H](O)CO [tezacaftor] | 5.45 | 53.3 | – | – | – | – | – | – | – | –
